Results published in patent publication US9096615B2, “Bridged bicyclic amino thiazine dioxide compounds as inhibitors of beta-secretase and methods of use thereof” (AMGEN INC., priority 2013, dated 2015).

Key:
[1] = tested on: Aβ40 in conditioned medium of cells stably expressing Amyloid Precursor Protein (APP); experiment: In vitro BACE cell-based assay (HEK cell assay, Aβ40 sandwich ELISA); details: Homo sapiens, HEK293; average IC50; read-out: BACE1 cell assay IC50
How it was run: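 APP-stable cells were cultured 24 h at 37 °C, then given compound as 10-point dose-response (top 100 μM or 10 μM; 0.1% DMSO final) for 24 h. Aβ40 in conditioned medium was measured by sandwich ELISA (pAb40 capture, biotinylated 6E10 detection, Eu time-resolved fluorescence). IC50 from percent inhibition versus concentration.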

human Bace2 protein = molecular target: T1, human Bace2 protein (Homo sapiens, UniProt Q9Y5Z0); experiment: In vitro enzymatic BACE2 FRET assay; format: biochemical; details: average IC50; read-out: BACE2 Enzyme assay IC50
T1 construct: V5 (C); 6-His (C)
T1 sequence (Q9Y5Z0 63-518): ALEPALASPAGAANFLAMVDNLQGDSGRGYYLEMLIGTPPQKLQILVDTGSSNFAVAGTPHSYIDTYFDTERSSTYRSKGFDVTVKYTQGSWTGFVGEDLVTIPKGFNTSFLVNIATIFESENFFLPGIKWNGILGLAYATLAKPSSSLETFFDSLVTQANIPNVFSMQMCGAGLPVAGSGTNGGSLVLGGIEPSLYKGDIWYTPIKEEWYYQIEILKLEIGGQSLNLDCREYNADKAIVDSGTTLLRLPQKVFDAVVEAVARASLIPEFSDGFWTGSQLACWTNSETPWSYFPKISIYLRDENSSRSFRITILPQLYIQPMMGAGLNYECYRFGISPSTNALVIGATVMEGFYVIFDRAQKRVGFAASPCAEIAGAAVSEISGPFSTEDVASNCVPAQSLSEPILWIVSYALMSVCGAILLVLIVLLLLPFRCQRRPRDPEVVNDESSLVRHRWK
How it was run: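 Human Bace2 with C-terminal V5/6-His tag (0.2 nM) pre-incubated 1 h with inhibitor in 0.05 M acetate pH 4.2, 10% DMSO, 100 uM genapol; reaction started with 50 nM FRET peptide substrate, run 1 h. Stopped with Tris to neutral pH; fluorescence increase from substrate cleavage measured.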

BACE1 = BACE1 (Homo sapiens, UniProt P56817); experiment: In vitro enzymatic BACE FRET assay; format: biochemical; details: average IC50; read-out: BACE1 Enzyme assay IC50
BACE1, sequence (P56817 46-501, species assumed): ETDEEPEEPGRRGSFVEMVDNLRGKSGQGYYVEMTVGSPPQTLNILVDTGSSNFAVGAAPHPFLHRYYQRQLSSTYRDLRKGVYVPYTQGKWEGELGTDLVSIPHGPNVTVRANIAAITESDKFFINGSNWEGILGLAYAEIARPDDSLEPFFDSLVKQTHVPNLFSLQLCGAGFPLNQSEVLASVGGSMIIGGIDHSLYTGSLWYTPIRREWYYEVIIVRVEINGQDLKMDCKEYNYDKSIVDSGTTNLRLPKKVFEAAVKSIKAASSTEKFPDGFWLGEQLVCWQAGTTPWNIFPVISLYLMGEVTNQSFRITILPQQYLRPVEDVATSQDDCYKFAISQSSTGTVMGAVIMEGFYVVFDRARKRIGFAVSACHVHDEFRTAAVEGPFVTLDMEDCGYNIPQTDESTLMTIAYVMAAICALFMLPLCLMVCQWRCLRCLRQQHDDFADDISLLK
How it was run: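 BACE (0.2 nM) pre-incubated 1 h with serially diluted inhibitor in 0.05 M acetate pH 4.2, 10% DMSO, 100 uM genapol; 50 nM FRET peptide substrate added, 1 h incubation. Stopped with Tris to neutral pH; fluorescence read (ex 488, […]).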

| IC50 [1] | IC50 (human Bace2 protein) | IC50 (BACE1) | SMILES |
| --- | --- | --- | --- |
| 1 nM | 3 nM | 1 nM | C#CCOc1cnc(C(=O)Nc2ccc(F)c([C@@]3(C)N=C(N)[C@@]4(CF)CC[C@@H]3S4(=O)=O)c2)c(C)n1 [Example 59, N-(3-((1S,2R,5R)-4-amino-5-(fluoromethyl)-2-methyl-8,8-dioxido-8-thia-3-azabicyclo[3.2.1]oct-3-en-2-yl)-4-fluorophenyl)-3-methyl-5-(2-propyn-1-yloxy)-2-pyrazinecarboxamide] |
| 6 nM | 15 nM | 8 nM | COc1cnc2c(Nc3ccc(F)c([C@@]4(C)N=C(N)[C@@]5(C)CC[C@@H]4S5(=O)=O)c3)nccc2n1 [Example 80, N-(3-((1S,2R,5R)-4-amino-2,5-dimethyl-8,8-dioxido-8-thia-3-azabicyclo[3.2.1]oct-3-en-2-yl)-4-fluorophenyl)-2-methoxypyrido[3,4-b]pyrazin-5-amine] |
| 30 nM | 3 nM | 13 nM | COc1cnc(C(=O)Nc2ccc(F)c([C@@]3(C)N=C(N)[C@@]4(CF)CC[C@@H]3S4(=O)=O)c2)c(C)c1 [Example 42, N-(3-((1S,2R,5R)-4-amino-5-(fluoromethyl)-2-methyl-8,8-dioxido-8-thia-3-azabicyclo[3.2.1]oct-3-en-2-yl)-4-fluorophenyl)-5-methoxy-3-methyl-2-pyridinecarboxamide] |
| 4 nM | 18 nM | 1 nM | C#CCOc1ccc(C(=O)Nc2ccc(F)c([C@@]3(C)N=C(N)[C@@]4(CF)CC[C@@H]3S4(=O)=O)c2)nc1 [Example 52, N-(3-((1S,2R,5R)-4-amino-5-(fluoromethyl)-2-methyl-8,8-dioxido-8-thia-3-azabicyclo[3.2.1]oct-3-en-2-yl)-4-fluorophenyl)-5-(2-propyn-1-yloxy)-2-pyridinecarboxamide] |
| 8 nM | 4 nM | 10 nM | COc1cnc(C(=O)Nc2ccc(F)c([C@@]3(C)N=C(N)[C@@]4(CF)CC[C@@H]3S4(=O)=O)c2)c(C)n1 [Example 76, N-(3-((1S,2R,5R)-4-amino-5-(fluoromethyl)-2-methyl-8,8-dioxido-8-thia-3-azabicyclo[3.2.1]oct-3-en-2-yl)-4-fluorophenyl)-5-methoxy-3-methyl-2-pyrazinecarboxamide] |
| 2 nM | 8 nM | 4 nM | Cc1cc(OC(F)F)cnc1C(=O)Nc1ccc(F)c([C@@]2(C)N=C(N)[C@@]3(CF)CC[C@@H]2S3(=O)=O)c1 [Example 102, N-(3-((1S,2R,5R)-4-amino-5-(fluoromethyl)-2-methyl-8,8-dioxido-8-thia-3-azabicyclo[3.2.1]oct-3-en-2-yl)-4-fluorophenyl)-5-(difluoromethoxy)-3-methyl-2-pyridinecarboxamide] |
| 3 nM | 51 nM | 6 nM | COc1cnc2c(Nc3ccc(F)c([C@@]4(C)N=C(N)[C@@]5(C)CC[C@@H]4S5(=O)=O)c3)ncnc2c1 [Example 132, N-(3-((1S,2R,5R)-4-amino-2,5-dimethyl-8,8-dioxido-8-thia-3-azabicyclo[3.2.1]oct-3-en-2-yl)-4-fluorophenyl)-7-methoxypyrido[3,2-d]pyrimidin-4-amine] |
| 5 nM | 0.8 nM | 3 nM | Cc1cc(Cl)cnc1C(=O)Nc1ccc(F)c([C@@]2(C)N=C(N)[C@@]3(CF)CC[C@@H]2S3(=O)=O)c1 [Example 88, N-(3-((1S,2R,5R)-4-amino-5-(fluoromethyl)-2-methyl-8,8-dioxido-8-thia-3-azabicyclo[3.2.1]oct-3-en-2-yl)-4-fluorophenyl)-5-chloro-3-methyl-2-pyridinecarboxamide] |
| 35 nM | 22 nM | 8 nM | C[C@]1(c2cc(Nc3ncnc4cc(C#N)cnc34)ccc2F)N=C(N)[C@@]2(CF)CC[C@@H]1S2(=O)=O [Example 40, 4-((3-((1S,2R,5R)-4-amino-5-(fluoromethyl)-2-methyl-8,8-dioxido-8-thia-3-azabicyclo[3.2.1]oct-3-en-2-yl)-4-fluorophenyl)amino)pyrido[3,2-d]pyrimidine-7-carbonitrile] |
| 2 nM | 1 nM | 2 nM | Cc1cc(C#N)cnc1C(=O)Nc1ccc(F)c([C@@]2(C)N=C(N)[C@@]3(CF)CC[C@@H]2S3(=O)=O)c1 [Example 96, N-(3-((1S,2R,5R)-4-amino-5-(fluoromethyl)-2-methyl-8,8-dioxido-8-thia-3-azabicyclo[3.2.1]oct-3-en-2-yl)-4-fluorophenyl)-5-cyano-3-methyl-2-pyridinecarboxamide] |
| 7 nM | 20 nM | 7 nM | COc1cnc2c(Nc3ccc(F)c([C@@]4(C)N=C(N)[C@@]5(CF)CC[C@@H]4S5(=O)=O)c3)ncnc2c1 [Example 97, N-(3-((1S,2R,5R)-4-amino-5-(fluoromethyl)-2-methyl-8,8-dioxido-8-thia-3-azabicyclo[3.2.1]oct-3-en-2-yl)-4-fluorophenyl)-7-methoxypyrido[3,2-d]pyrimidin-4-amine] |
| 16.7 nM | 18.5 nM | 18.8 nM | COc1cnc2c(Nc3ccc(F)c([C@@]4(C)N=C(N)[C@@]5(CF)CC[C@@H]4S5(=O)=O)c3)nccc2c1 [Example 56, N-(3-((1S,2R,5R)-4-amino-5-(fluoromethyl)-2-methyl-8,8-dioxido-8-thia-3-azabicyclo[3.2.1]oct-3-en-2-yl)-4-fluorophenyl)-3-methoxy-1,7-naphthyridin-8-amine] |
| 12 nM | 5 nM | 3 nM | COc1cnc2c(Nc3ccc(F)c([C@@]4(C)N=C(N)[C@@]5(C)CC[C@@H]4S5(=O)=O)c3)ncc(F)c2c1 [Example 78, N-(3-((1S,2R,5R)-4-amino-2,5-dimethyl-8,8-dioxido-8-thia-3-azabicyclo[3.2.1]oct-3-en-2-yl)-4-fluorophenyl)-5-fluoro-3-methoxy-1,7-naphthyridin-8-amine] |
| 4 nM | 0.6 nM | 1 nM | C[C@]1(c2cc(Nc3nccc4cc(C#N)cnc34)ccc2F)N=C(N)[C@@]2(CF)CC[C@@H]1S2(=O)=O [Example 100, 8-((3-((1S,2R,5R)-4-amino-5-(fluoromethyl)-2-methyl-8,8-dioxido-8-thia-3-azabicyclo[3.2.1]oct-3-en-2-yl)-4-fluorophenyl)amino)-1,7-naphthyridine-3-carbonitrile] |
| 0.07 nM | 3 nM | 0.5 nM | CC#CCOc1cnc(C(=O)Nc2ccc(F)c([C@@]3(C)N=C(N)[C@@]4(C)CC[C@@H]3S4(=O)=O)c2)cn1 [Example 82, N-(3-((1S,2R,5R)-4-amino-2,5-dimethyl-8,8-dioxido-8-thia-3-azabicyclo[3.2.1]oct-3-en-2-yl)-4-fluorophenyl)-5-(2-butyn-1-yloxy)-2-pyrazinecarboxamide] |
| 0.9 nM | 3 nM | 2 nM | C[C@]1(c2cc(Nc3nccc4nc(OCc5ncco5)cnc34)ccc2F)N=C(N)[C@@]2(CF)CC[C@@H]1S2(=O)=O [Example 104, N-(3-((1S,2R,5R)-4-amino-5-(fluoromethyl)-2-methyl-8,8-dioxido-8-thia-3-azabicyclo[3.2.1]oct-3-en-2-yl)-4-fluorophenyl)-2-(1,3-oxazol-2-ylmethoxy)pyrido[3,4-b]pyrazin-5-amine] |
| 3 nM | 1 nM | 3 nM | C[C@]1(c2cc(NC(=O)c3ccc(Cl)cn3)ccc2F)N=C(N)[C@@]2(CF)CC[C@@H]1S2(=O)=O [Example 77, N-(3-((1S,2R,5R)-4-amino-5-(fluoromethyl)-2-methyl-8,8-dioxido-8-thia-3-azabicyclo[3.2.1]oct-3-en-2-yl)-4-fluorophenyl)-5-chloro-2-pyridinecarboxamide] |
| 2 nM | 7 nM | 5 nM | COc1cnc(C(=O)Nc2ccc(F)c([C@@]3(C)N=C(N)[C@@]4(C)CC[C@@H]3S4(=O)=O)c2)cn1 [Example 61, N-(3-((1S,2R,5R)-4-amino-2,5-dimethyl-8,8-dioxido-8-thia-3-azabicyclo[3.2.1]oct-3-en-2-yl)-4-fluorophenyl)-5-methoxy-2-pyrazinecarboxamide] |
| 15 nM | 10 nM | 9 nM | COc1cnc2c(Nc3ccc(F)c([C@@]4(C)N=C(N)[C@@]5(CF)CC[C@@H]4S5(=O)=O)c3)nccc2n1 [Example 41, N-(3-((1S,2R,5R)-4-amino-5-(fluoromethyl)-2-methyl-8,8-dioxido-8-thia-3-azabicyclo[3.2.1]oct-3-en-2-yl)-4-fluorophenyl)-2-methoxypyrido[3,4-b]pyrazin-5-amine] |
